Legend:
[1] = hydrophilic/lipophilic ratio; cited from earlier work
[2] = also printed as 0.0176% to 0.176%; Sakagami H. et al. 1996; cited from earlier work
[3] = test system: adipocytes; conditions: concentration of 0.06% (3.3 mM); Gao Yan et al. 2009; cited from earlier work
[4] = test system: adipose tissue; test: Clinical study: histological analysis of adipose tissue after subcutaneous injection into areas with localized cellulite; format: in vivo, patient; conditions: surfactant added to ascorbate composition
Experimental: Step (c) Ten ml of diluents solution were used to reconstitute the mixture of sodium ascorbate and sodium chloride. Cosmetic Treatment: 5 ml of reconstituted solutions were given by subcutaneous injection into local areas with localized cellulite; lipolytic effect, adverse reactions and necrosis were evaluated by histological analysis.
The cosmetic treatment using the composition according to the invention was administered to a group of subjects who were well informed of the procedure; all gave their consent to the use of the results of the study for obtaining a patent grant. […]
A more specific and in-depth observation of the lower limbs was first made to assess, visually, the presence, location and extent of the irregularities of skin surface typical of cellulite. […] By photographic, thermographic and ultrasound instrumental investigations, the condition of each subject have been determined and classified according to a cellulite evaluation scale, ad hoc elaborated for the present study: • grade 0: exempt subjects; • grade 1: local skin rupture, characterized by few presence of irregular skin surface (madras skin or mattres phenomenon) with pit shaped introflexions; • grade 2: generalized skin rupture (skin roughness or orange peel skin). […]

Molecule | HLB [1] | concentration range to induce an apoptotic effect [2] [mM] | apoptotic damage and adipocytes decrease [3] | ability of surfactants to determine the improvement of the lipolytic action of ascorbic acid salt [4]
Polysorbate 80 | HLB: 10-12 |  |  | 
O=C1O[C@H]([C@@H](O)CO)C(O)=C1O [ascorbic acid] |  | 1 to 10 | ineffective | 
CCCCCCCC/C=C\CCCCCCCC(=O)OCC(O)CO (stereo not drawn) [Glyceryl monooleate] | HLB: 2-3 |  |  | 
CCCCCCCCCCCCCCCC(=O)OC[C@H](O)[C@H]1OC(=O)C(O)=C1O [Ascorbyl Palmitate, ascorbyl palmitate] | HLB: 4-5 |  |  | particularly effective
